US7138361B2, “Herbicidal heterocycles” (E. I. du Pont de Nemours and Company, priority 2000, dated 2006)

Experiments:
Experiment in all cases: Test D greenhouse paddy-water test in rice
Type in all cases: in vivo
Details in all cases: 500 g/ha alone, 21 days, 0-100 scale
Cyperus iria (Ci) = tested on: Cyperus iria (Ci)
From the text: (§1) Four plastic pots (ca. 16-cm diameter) per rate were partially filled with sterilized Tama silt loam soil comprised of a 35:50:15 ratio of sand, silt and clay and 2.6% organic matter. Separate plantings for each of the four pots were as follows. Seeds from the U.S. of Heteranthera limosa (Hl), Monochoria vaginalis (Mv), Ammania auriculata (Aa), and Sphenoclea zeylanica (Sz) were planted into one 16-cm pot for each rate. Seeds from the U.S. of Cyperus iria (Ci), Leptochloa fascicularis (Li), one stand of 9 or 10 direct-seeded rice seedlings (Oryza saliva cv. ‘Japonica—M202’; Oss), and one stand of 6 transplanted rice seedlings (Oryza sativa cv. ‘Japonica—M202’; Ost) were planted into one 16-cm pot for each rate. Seeds from the U.S. of Cyperus difformis (Cd), Alisma plantago-aquatica (Ap), and Scirpus mucronatus (Sm) were planted into one 16-cm pot for each rate. Seeds from the U.S. of Echinochloa crus-galli (Ecg), Echinochloa oryzicola (Eor), Echinochloa oryzoides (Eoz) and Echinochloa colonum (Ecc) were planted into one 16-cm pot for each rate. Plantings were sequential so that crop and weed species were at the 2.0 to 2.5-leaf stage at time of treatment.
(§2) Potted plants were grown in a greenhouse with day/night temperature settings of 29.5/26.7° C., and supplemental balanced lighting was provided to maintain a 16-hour photoperiod. Test pots were maintained in the greenhouse until test completion.
(§3) Chemical treatments consisting of Compound 1 of Index Table A (Cmpd 1), daimuron (Cmpd D), quinoclamine (Cmpd Q) and combinations thereof were formulated in acetone. At time of treatment, test pots were flooded to 3 cm above the soil surface, treated by application of test compounds directly to the paddy water, and then maintained at that water depth for the duration of the test. Effects of treatments on rice and weeds were visually evaluated by comparison to untreated controls after 21 days. Plant response ratings are reported on a 0 to 100 scale; where 0 is no effect and 100 is complete control. ND means no data.
(§4) Colby's equation was used to calculate the expected additive herbicidal effect of the mixtures of Compound 1 with daimuron (Cmpd D) and quinoclamine (Cmpd Q). Colby's equation (Colby, S. R “Calculating Synergistic and Antagonistic Responses of Herbicide Combinations,” Weeds, 15(1), pp 20–22 (1967)) calculates the expected additive effect of herbicidal mixtures, and for two active ingredients is of the form: Pa+b=Pa+Pb−(PaPb/100) wherein Pa+b is the percentage effect of the mixture expected from additive contribution of the individual components, • Pa is the observed percentage effect of the first active ingredient at the same use rate as in the mixture, and • Pb is the observed percentage effect of the second active ingredient at the same use rate as in the mixture.

[1] = tested on: Echinochloa oryzoides (Eoz)
From the text: as §1, §2, §3, §4

Cyperus difformis (Cd) = tested on: Cyperus difformis (Cd)
From the text: as §1, §2, §3, §4

[2] = tested on: Leptochloa fascicularis (Li)
From the text: as §1, §2, §3, §4

[3] = tested on: Echinochloa oryzicola (Eor)
From the text: as §1, §2, §3, §4

[4] = tested on: Echinochloa crus-galli (Ecg)
From the text: as §1, §2, §3, §4

Ammania auriculata (Aa) = tested on: Ammania auriculata (Aa)
From the text: as §1, §2, §3, §4

[5] = tested on: Alisma plantago-aquatica (Ap)
From the text: as §1, §2, §3, §4

Heteranthera limosa (Hl) = tested on: Heteranthera limosa (Hl)
From the text: as §1, §2, §3, §4

[6] = tested on: Monochoria vaginalis (Mv)
From the text: as §1, §2, §3, §4

[7] = tested on: transplanted rice seedlings (Oryza sativa cv. 'Japonica—M202'; Ost)
From the text: as §1, §2, §3, §4

[8] = tested on: Sphenoclea zeylanica (Sz)
From the text: as §1, §2, §3, §4

[9] = tested on: direct-seeded rice seedlings (Oryza saliva cv. 'Japonica—M202'; Oss)
From the text: as §1, §2, §3, §4

[10] = tested on: Echinochloa colonum (Ecc)
From the text: as §1, §2, §3, §4

Scirpus mucronatus (Sm) = tested on: Scirpus mucronatus (Sm)
From the text: as §1, §2, §3, §4

Structure (SMILES) | Obs. (observed effect) Ci (Cyperus iria (Ci)) | Obs. (observed effect) Eoz [1] | Obs. (observed effect) Cd (Cyperus difformis (Cd)) | Obs. (observed effect) Lf [2] | Obs. (observed effect) Eor [3] | Obs. (observed effect) Ecg [4] | Obs. (observed effect) Aa (Ammania auriculata (Aa)) | Obs. (observed effect) Ap [5] | Obs. (observed effect) Hl (Heteranthera limosa (Hl)) | Obs. (observed effect) Mv [6] | Obs. (observed effect) Ost [7] | Obs. (observed effect) Sz [8] | Obs. (observed effect) Oss [9] | Obs. (observed effect) Ecc [10] | Obs. (observed effect) Sm (Scirpus mucronatus (Sm))
NC1=C(Cl)C(=O)c2ccccc2C1=O [quinoclamine, reference compound] | 0 | 0 | 35 | 0 | 30 | 0 | 0 | 60 | 0 | 0 | 0 | 0 | 0 | 0 | 0
Cc1ccc(NC(=O)NC(C)(C)c2ccccc2)cc1 [daimuron, reference compound] | 0 | 0 | 60 | 0 | 0 | 0 | 0 | 0 | 30 | 30 | 0 | 20 | 0 | 0 | –
